Measurements taken from US9833497B2, “Human originated EGF domain proteins and use of the same” (CHENGDU SOURCEBIO LIMITED-LIABILITY COMPANY, priority 2013, dated 2017).

Assays:
Type in all cases: cell-based
[1] = system: Enterobacter cloacae; test: MIC against Gram-negative bacteria: Enterobacter cloacae; conditions: 5×10^5 CFU/mL
Summary of the method: (§1)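 Broth microdilution, LB medium, final inoculum 5×10^5 CFU/mL from McFarland 0.5 cultures. Recombinant human EGF domain proteins tested in two-fold steps, n=3. MIC: lowest concentration, no growth.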

[2] = system: Serratia marcescens; test: MIC against Gram-negative bacteria: Serratia marcescens; conditions: 5×10^5 CFU/mL
Summary of the method: as §1

[3] = system: Aeromonas hydrophila; test: MIC against Gram-negative bacteria: Aeromonas hydrophila; conditions: 5×10^5 CFU/mL
Summary of the method: as §1

[4] = system: Citrobacter diversus; test: MIC against Gram-negative bacteria: Citrobacter diversus; conditions: 5×10^5 CFU/mL
Summary of the method: as §1

[5] = system: Klebsiella pneumonia; test: MIC against Gram-negative bacteria: Klebsiella pneumonia; conditions: 5×10^5 CFU/mL
Summary of the method: as §1

[6] = system: E. coli DH5α; test: Antibacterial activity: MIC and growth curve against E. coli DH5α in 96-well plate; conditions: minimal inhibitory concentration against E. coli DH5α; 96-well plate, 5×10^5 CFU/mL, 37° C., judged after 8 h
Summary of the method: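 Log-phase bacteria (OD600 ~0.5) resuspended in LB at 5×10^5 CFU/mL, exposed to recombinant protein at 50, 25, 12.5 μg/mL final in triplicate, 37 °C shaking at 175 rpm. OD600 read every 30 min; MIC is lowest concentration showing no growth.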

[7] = system: Proteus mirabilis; test: MIC against Gram-negative bacteria: Proteus mirabilis; conditions: 5×10^5 CFU/mL
Summary of the method: as §1

[8] = system: Proteus vulgaris; test: MIC against Gram-negative bacteria: Proteus vulgaris; conditions: 5×10^5 CFU/mL
Summary of the method: as §1

[9] = system: Pseudomonas aeruginosa; test: MIC against Gram-negative bacteria: Pseudomonas aeruginosa; conditions: 5×10^5 CFU/mL
Summary of the method: as §1

[10] = system: Moraxella catarrhalis; test: MIC against Gram-negative bacteria: Moraxella catarrhalis; conditions: 5×10^5 CFU/mL
Summary of the method: as §1

[11] = system: E. coli BL21; test: MIC against Gram-negative bacteria: E. coli BL21; conditions: 5×10^5 CFU/mL
Summary of the method: as §1

[12] = 10 h cultivation at 37° C., two-fold serial dilution

| Substance | MIC [6] | MIC (μg/mL) E. cloacae ([1]; 10 h cultivation at 37° C.) | MIC (μg/mL) S. marcescens ([2]; 10 h cultivation at 37° C.) | MIC (μg/mL) A. hydrophila ([3]; 10 h cultivation at 37° C.) | MIC (μg/mL) C. diversus ([4]; 10 h cultivation at 37° C.) | MIC (μg/mL) K. pneumonia ([5]; 10 h cultivation at 37° C.) | MIC (μg/mL) P. mirabilis ([7]; 10 h cultivation at 37° C.) | MIC (μg/mL) P. vulgaris ([8]; 10 h cultivation at 37° C.) | MIC (μg/mL) P. aeruginosa ([9]; 10 h cultivation at 37° C.) | MIC (μg/mL) M. catarrhalis ([10]; 10 h cultivation at 37° C.) | MIC (μg/mL) E. coli BL21 ([11]; 10 h cultivation at 37° C.) | other results |
| --- | --- | --- | --- | --- | --- | --- | --- | --- | --- | --- | --- | --- |
| PRT695 (DVDECHRVPPPCDLGRCENTPGSFLCVCPAGYQAAPHGASCQ; listed as Homo sapiens) | 25 µg/mL |  |  |  |  |  |  |  |  |  |  | MIC E. cloacae ([1]; 96-well plate, 37° C., 10 h): 12.5 µg/mL; MIC S. marcescens ([2]; 96-well plate, 37° C., 10 h): 12.5 µg/mL; MIC A. hydrophila ([3]; 96-well plate, 37° C., 10 h): 25 µg/mL; MIC C. diversus ([4]; 96-well plate, 37° C., 10 h): 50 µg/mL; MIC K. pneumonia ([5]; 96-well plate, 37° C., 10 h): 25 µg/mL; MIC P. mirabilis ([7]; 96-well plate, 37° C., 10 h): 12.5 µg/mL; MIC P. vulgaris ([8]; 96-well plate, 37° C., 10 h): 50 µg/mL; MIC P. aeruginosa ([9]; 96-well plate, 37° C., 10 h): 25 µg/mL; MIC M. catarrhalis ([10]; 96-well plate, 37° C., 10 h): 50 µg/mL; MIC E. coli BL21 ([11]; 96-well plate, 37° C., 10 h): 12.5 µg/mL |
| PRT218 (DINECDASNQCAQQCYNILGSFICQCNQGYELSSDRLNCE; listed as Homo sapiens) | 100 µg/mL | 25 µg/mL | 25 µg/mL | 12.5 µg/mL | 25 µg/mL | 50 µg/mL | 25 µg/mL | 50 µg/mL | 50 µg/mL | 50 µg/mL | 50 µg/mL |  |
| PRT268 (SFKCRCDSGFALDSEERNCTDIDE; listed as Homo sapiens) | 12.5 µg/mL | 50 µg/mL | 12.5 µg/mL | 25 µg/mL | 12.5 µg/mL | 25 µg/mL | 50 µg/mL | 12.5 µg/mL | 12.5 µg/mL | 25 µg/mL | 25 µg/mL |  |
| PRT1095 (EVQWCGFSPCPHGAQCQPVLQGFECIANAVFNGQSGQ; listed as Homo sapiens) | 50 µg/mL |  |  |  |  |  |  |  |  |  |  | MIC E. cloacae [1, 12]: 12.5 µg/mL; MIC S. marcescens [2, 12]: 50 µg/mL; MIC A. hydrophila [3, 12]: 25 µg/mL; MIC C. diversus [4, 12]: 25 µg/mL; MIC K. pneumonia [5, 12]: 25 µg/mL; MIC P. mirabilis [7, 12]: 25 µg/mL; MIC P. vulgaris [8, 12]: 12.5 µg/mL; MIC P. aeruginosa [9, 12]: 50 µg/mL; MIC M. catarrhalis [10, 12]: 50 µg/mL; MIC E. coli BL21 [11, 12]: 12.5 µg/mL |
| PRT768 (AIDYCSFGNHSCQHECVSTPGGPRCHCREGHDLQPDGRSCQ; listed as Homo sapiens) | 12.5 µg/mL | 50 µg/mL | 12.5 µg/mL | 12.5 µg/mL | 50 µg/mL | 12.5 µg/mL | 12.5 µg/mL | 25 µg/mL | 25 µg/mL | 25 µg/mL | 50 µg/mL |  |
| PRT795 (WGFGCNLTCQCLNGGACNTLDGTCTCAPGWRGEKCE; listed as Homo sapiens) | 50 µg/mL | 12.5 µg/mL | 50 µg/mL | 25 µg/mL | 50 µg/mL | 50 µg/mL | 25 µg/mL | 25 µg/mL | 50 µg/mL | 25 µg/mL | 25 µg/mL |  |
| PRT222 (DVDECAQALHDCRPSQDCHNLPGSYQCTCPDGYRKIGPECV; listed as Homo sapiens) | 50 µg/mL | 25 µg/mL | 25 µg/mL | 12.5 µg/mL | 25 µg/mL | 12.5 µg/mL | 25 µg/mL | 12.5 µg/mL | 12.5 µg/mL | 12.5 µg/mL | 12.5 µg/mL |  |
